From patent publication US8415373B2, “Isoquinolinone derivatives as NK3 antagonists” (H. Lundbeck A/S, priority 2008, dated 2013)

Assays:
human NK3 receptor = target: T1, human NK3 receptor (Homo sapiens, UniProt P29371); assay: NK3 receptor binding assay (SPA-based competition binding, 125I-NKB); conditions: read-out: Affinity (Ki/nM)
T1 construct: expressed in transfected cells
T1 sequence (P29371 1-465): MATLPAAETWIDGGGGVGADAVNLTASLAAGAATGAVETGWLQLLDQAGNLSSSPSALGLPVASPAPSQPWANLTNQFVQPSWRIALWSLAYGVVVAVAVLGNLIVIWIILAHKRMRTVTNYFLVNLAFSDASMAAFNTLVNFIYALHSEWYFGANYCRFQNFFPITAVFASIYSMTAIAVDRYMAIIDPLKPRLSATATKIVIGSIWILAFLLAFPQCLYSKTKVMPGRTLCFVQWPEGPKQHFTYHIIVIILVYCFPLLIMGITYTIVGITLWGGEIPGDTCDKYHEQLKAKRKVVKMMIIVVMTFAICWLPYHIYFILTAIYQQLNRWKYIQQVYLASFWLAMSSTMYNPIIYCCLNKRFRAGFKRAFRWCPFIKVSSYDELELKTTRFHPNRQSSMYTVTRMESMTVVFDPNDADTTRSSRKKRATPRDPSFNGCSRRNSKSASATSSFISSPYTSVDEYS
Protocol: Membranepreparation: BHK cells stably expressing the human NK3 receptor were seeded in harvesting plates in Dulbeccos MEM containing GlutaMax (862 mg/l), 1 mM sodium pyruvate, 10% fetal calf serum, 1% Pen/Strep, 1 mg/ml G418 and were grown at 34° C. in a humidified atmosphere containing 10% CO2. To increase receptor expression, 10 μM trichotatin A was added to the media 24 hours before harvest of the cells at a confluency of app 90%. Prior to the harvesting, the cells were washed twice with PBS without Mg^2+ og Ca^2+ and subsequently scrapped of in 10 ml PBS pr harvesting plate. The cell suspension were centrifuged at 1500×G in three minutes before resuspension in 15 mM Tris-HCl pH 7.5 buffer containing 2 mM MgCl2; 0.3 mM EDTA and 1 mM EGTA (buffer A). The cell suspension was homogenised and subsequently centrifuged at 40000×G in 30 minutes. The membrane-pellet was resuspended in buffer A containing 250 mM sucrose, aliquoted and stored at −80° C.
Affinity assay description: The assay was performed as a SPA-based competition-binding assay in a 50 mM Tris pH 7.4 assay buffer containing 120 mM NaCl, 3 mM MnCl2, 40 μg/ml bacitracin, 2 μg/ml Chymostatin, 1 μg/ml Phosphoramidon and 4 μg/ml Leupeptin. […] The assay plate was subsequently under agitation incubated for 90 min at RT. The plate was centrifugated 10 minutes at 500×G and counted in a topcounter 5 minutes pr well.

[1] = Nature reviews, 4, 967-975, 2005; cited from earlier work
schizophrenics = conditions: cited from earlier work
[2] = Nature reviews, 4, 967-975, 2005; cited from earlier work; remark: listed apart in the source

Compound | Ki (human NK3 receptor) | further results
CC[C@H](NC(=O)c1c(C)n(Nc2ccccc2)c(=O)c2ccccc12)c1ccccc1 [Example 1a, 3-Methyl-1-oxo-2-phenylamino-1,2-dihydro-isoquinoline-4-carboxylic acid ((S)-1-phenyl-propyl)-amide] | 200 nM | –
Cc1c(C(=O)N[C@H](c2cccc(F)c2)C2CC2)c2cccc(F)c2c(=O)n1Cc1ccoc1 [Example 2a, 8-Fluoro-2-furan-3-ylmethyl-3-methyl-1-oxo-1,2-dihydro-isoquinoline-4-carboxylic acid [(S)-cyclopropyl-(3-fluoro-phenyl)-methyl]-amide] | 28 nM | –
Cc1nc(Cn2c(C)c(C(=O)N[C@H](c3cccc(F)c3)C3CCC3)c3cccc(F)c3c2=O)cs1 [Example 2ac, 8-Fluoro-3-methyl-2-(2-methyl-thiazol-4-ylmethyl)-1-oxo-1,2-dihydro-isoquinoline-4-carboxylic acid [(S)-cyclobutyl-(3-fluoro-phenyl)-methyl]-amide] | 95 nM | –
CCn1ccnc1Cn1c(C)c(C(=O)N[C@H](c2cccc(F)c2)C2CCC2)c2cccc(F)c2c1=O [Example 2ah, 2-(1-Ethyl-1H-imidazol-2-ylmethyl)-8-fluoro-3-methyl-1-oxo-1,2-dihydro-isoquinoline-4-carboxylic acid [(S)-cyclobutyl-(3-fluoro-phenyl)-methyl]-amide] | 43 nM | –
Cc1c(C(=O)N[C@H](c2cccc(F)c2)C2CC2)c2cccc(F)c2c(=O)n1Cc1cccnc1 [Example 2b, 8-Fluoro-3-methyl-1-oxo-2-pyridin-3-ylmethyl-1,2-dihydro-isoquinoline-4-carboxylic acid [(S)-cyclopropyl-(3-fluoro-phenyl)-methyl]-amide] | 350 nM | –
Cc1c(C(=O)N[C@H](c2cccc(F)c2)C2CC2)c2cccc(F)c2c(=O)n1Cc1cc(F)ccc1F [Example 2d, 2-(2,5-Difluoro-benzyl)-8-fluoro-3-methyl-1-oxo-1,2-dihydro-isoquinoline-4-carboxylic acid [(S)-cyclopropyl-(3-fluoro-phenyl)-methyl]-amide] | 180 nM | –
Cc1c(C(=O)N[C@H](c2cccc(F)c2)C2CC2)c2cccc(F)c2c(=O)n1Cc1ccsc1 [Example 2g, 8-Fluoro-3-methyl-1-oxo-2-thiophen-3-ylmethyl-1,2-dihydro-isoquinoline-4-carboxylic acid [(S)-cyclopropyl-(3-fluoro-phenyl)-methyl]-amide] | 7.8 nM | –
Cc1cc(Cn2c(C)c(C(=O)N[C@H](c3cccc(F)c3)C3CCC3)c3cccc(F)c3c2=O)no1 [Example 2m, 8-Fluoro-3-methyl-2-(5-methyl-isoxazol-3-ylmethyl)-1-oxo-1,2-dihydro-isoquinoline-4-carboxylic acid [(S)-cyclobutyl-(3-fluoro-phenyl)-methyl]-amide] | 33 nM | –
Cc1nnc(Cn2c(C)c(C(=O)N[C@H](c3cccc(F)c3)C3CCC3)c3cccc(F)c3c2=O)[nH]1 [Example 2o, 8-Fluoro-3-methyl-2-(5-methyl-4H-[1,2,4]triazol-3-ylmethyl)-1-oxo-1,2-dihydro-isoquinoline-4-carboxylic acid [(S)-cyclobutyl-(3-fluoro-phenyl)-methyl]-amide] | 120 nM | –
Cc1cc(Cn2c(C)c(C(=O)N[C@H](c3cccc(F)c3)C3CCC3)c3cccc(F)c3c2=O)[nH]n1 [Example 2p, 8-Fluoro-3-methyl-2-(5-methyl-2H-pyrazol-3-ylmethyl)-1-oxo-1,2-dihydro-isoquinoline-4-carboxylic acid [(S)-cyclobutyl-(3-fluoro-phenyl)-methyl]-amide] | 28 nM | –
Cc1c(C(=O)N[C@H](c2cccc(F)c2)C2CCC2)c2cccc(F)c2c(=O)n1Cc1cocn1 [Example 2t, 8-Fluoro-3-methyl-2-oxazol-4-ylmethyl-1-oxo-1,2-dihydro-isoquinoline-4-carboxylic acid [(S)-cyclobutyl-(3-fluoro-phenyl)-methyl]-amide] | 12 nM | –
Cc1nonc1Cn1c(C)c(C(=O)N[C@H](c2cccc(F)c2)C2CCC2)c2cccc(F)c2c1=O [Example 2v, 8-Fluoro-3-methyl-2-(4-methyl-furazan-3-ylmethyl)-1-oxo-1,2-dihydro-isoquinoline-4-carboxylic acid [(S)-cyclobutyl-(3-fluoro-phenyl)-methyl]-amide] | 6.6 nM | –
Cc1c(C(=O)N[C@H](c2ccc(F)c(F)c2)C2CCC2)c2cccc(F)c2c(=O)n1Cc1ncco1 [Example 4b, 8-Fluoro-3-methyl-2-oxazol-2-ylmethyl-1-oxo-1,2-dihydro-isoquinoline-4-carboxylic acid [(S)-cyclobutyl-(3,4-difluoro-phenyl)-methyl]-amide] | 4 nM | –
CC(=O)N(C)C1(c2ccccc2)CCN(CCC[C@]2(c3ccc(Cl)c(Cl)c3)CCCN(C(=O)c3ccccc3)C2)CC1 [Osanetant, osanetant] | – | solubility [1]: poor; effect versus placebo in clinical trials, in particular on positive symptoms of psychosis (schizophrenics; Am. J. Psychiatry, 161, 2004, 975-984): superior to placebo; bioavailability [2]: poor; blood-brain barrier penetration [2]: poor; clearance [2]: relatively high
CC[C@H](NC(=O)c1c(O)c(-c2ccccc2)nc2ccccc12)c1ccccc1 [talnetant] | – | solubility [1]: poor; effect on cognitive behaviour of schizophrenics in clinical trials (schizophrenics; Curr. Opion. Invest. Drug, 6, 717-721, 2005): ameliorate; bioavailability [2]: poor; blood-brain barrier penetration [2]: poor; clearance [2]: relatively high
